Molecules are shown by their SMILES.

This assay relates to Coptotermes formosanus. In words: Insect repellant activity against Coptotermes formosanus assessed as repellency threshold concentration measured up to 24 hr by multiple-step triage method. Format: functional.
For the compound `C=C(C)[C@@H]1CC[C@@]2(C)CCC(=O)C=C2C1`, the MEC worked out at 6.25 µg/g.
On to `CC(C)[C@@H]1CCC2=CC(=O)C[C@@H](C)[C@]2(C)C1` [11,12-DIHYDRONOOTKATONE], for which the MEC was found to be 6.25 µg/g.
Take `CC(C)[C@@H]1CCC2=CC(=O)C[C@H](C)[C@@]2(C)C1` [4BETA,5BETA-1,10-DIHYDRONOOTKATONE]: the MEC came out at 3.25 µg/g.
As for `C=C(C)[C@@H]1CC[C@@]2(C)C=CC(=O)C=C2C1`, the MEC was 25 µg/g.
The figure for `CC1=CC(=O)C=C2C[C@H](C(C)C)CC[C@@]12C` is 25 µg/g.
As for `C=C(C)[C@@H]1CC[C@@]2(C)C(C)=CC(=O)C=C2C1`, the MEC turned out to be 50 µg/g.
`C=C(C)[C@@H]1CC[C@]2(C)C(=CC(=O)C[C@@H]2C)C1`: the MEC was 12.5 µg/g.
Regarding `C=C(C)[C@@H]1CCC2CC(=O)C[C@@H](C)[C@]2(C)C1` (some centres not stated) [1,10-DIHYDRONOOTKATONE], the MEC is 1.56 µg/g.
For the compound `C=C(C)[C@@H]1CCC2CC3(C[C@@H](C)[C@]2(C)C1)OCCO3` (some centres not stated) [1,10-DIHYDRONOOTKATONE KETAL], the MEC amounted to 1.56 µg/g.
Then `C=C(C)[C@@H]1CCC2=CC(=O)C[C@@H](C)[C@]2(C)C1` [NOOTKATONE], with 12.5 µg/g; and `C=C(C)[C@@H]1CC[C@]2(C)CCC(=O)C=C2C1`, with 12.5 µg/g.
Then `CC(C)[C@@H]1CC[C@]2(C)C(=CC(=O)C[C@@H]2C)C1`, with 6.25 µg/g.
Consider `C=C(C)[C@@H]1CCC2=C[C@@H](O)C[C@@H](C)[C@]2(C)C1` [BETA-NOOTKATOL], for which the MEC was 100 µg/g.
Turning to `CC(C)[C@@H]1CCC2CC(=O)C[C@@H](C)[C@]2(C)C1` (some centres not stated) [TETRAHYDRONOOTKATONE], the MEC amounted to 1.56 µg/g.
As for `CC(C)[C@@H]1CC[C@@]2(C)C=CC(=O)C=C2C1`, the MEC amounted to 25 µg/g.
For the compound `C=C(C)[C@@H]1CCC2C[C@@H](O)C[C@@H](C)[C@]2(C)C1` (some centres not stated), the MEC came out at 50 µg/g.
As for `CC(C)[C@@H]1CCC2CC3(C[C@@H](C)[C@]2(C)C1)OCCO3` (some centres not stated) [TETRAHYDRONOOTKATONE KETAL], the MEC was found to be 1.56 µg/g.

Values taken from ChEMBL document CHEMBL3045732, “Structural requirements for repellency: norsesquiterpenes and sesquiterpenoid derivatives of nootkatone against the Formosan subterranean termite (Isoptera: Rhinotermitidae)” (2010).
